Assay results as given in patent publication US20250179210A1, “ANTI-CEACAM5 ANTIBODIES AND CONJUGATES AND USES THEREOF” (Merck Patent GmbH, priority 2022, published 2025).
Values joined by “and” are separate entries in the source; they are usually repeats but may differ in a detail not shown here. Equal entries are not always repeated.

Legend:
MKN-45 = assay: Viability assay (Cell Titer-Glo); assay type: cell-based; details: Homo sapiens
Description: (§1) Cytotoxicity effects of the ADC on the cancer cell lines were measured by cell viability assays. Cells were seeded in a volume of 90 μL in 96-well plates the day before treatment. Test compounds (ADCs or free payloads) were formulated at 10-fold the starting concentration in cell culture medium. Test compounds were serial diluted (1:4) and 10 μL of each dilution was added to the cells in triplicates. Plates were cultured at 37° C. in a CO2 incubator for six days. For cell viability measurement, Cell Titer-Glo® reagent (Promega™ Corp, Madison, WI) was added to each well, and plates processed according to the manufacturer's instructions. Luminescence signals were measured using a Varioskan plate reader (Thermo Fisher). Luminescence readings were converted to % viability relative to untreated cells. Data was fitted with non-linear regression analysis, using log (inhibitor) vs. response, variable slope, 4-parameter fit equation using GraphPad Prism. […] Geometric mean values of IC50s derived from multiple experiments were calculated.
(§2) Cytotoxicity effects of the ADC on the cancer cell lines were measured by cell viability assays. […] Luminescence signals were measured using a Varioskan plate reader (Thermo Fisher). Luminescence readings were converted to % viability relative to untreated cells. […] Geometric mean values of IC50s derived from multiple experiments were calculated.

SNU-16 = assay: Viability assay (Cell Titer-Glo); assay type: cell-based, human
Description: as §1, §2

SK-CO-1 = assay: Viability assay (Cell Titer-Glo); assay type: cell-based; details: Homo sapiens
Description: as §1, §2

LS174T = assay: Viability assay (Cell Titer-Glo); assay type: cell-based; details: Homo sapiens
Description: as §1, §2

MDA-MB-468 = assay: Viability assay (Cell Titer-Glo); assay type: cell-based; details: Homo sapiens, Table 2
Description: Cytotoxicity effects of the ADC on the cancer cell lines were measured by cell viability assays. Cells were seeded in a volume of 90 μL in 96-well plates the day before treatment. Test compounds (ADCs or free payloads) were formulated at 10-fold the starting concentration in cell culture medium. Test compounds were serial diluted (1:4) and 10 μL of each dilution was added to the cells in triplicates. Plates were cultured at 37° C. in a CO2 incubator for six days. For cell viability measurement, Cell Titer-Glo® reagent (Promega™ Corp, Madison, WI) was added to each well, and plates processed according to the manufacturer's instructions. Luminescence signals were measured using a Varioskan plate reader (Thermo Fisher). Luminescence readings were converted to % viability relative to untreated cells. Data was fitted with non-linear regression analysis, using log (inhibitor) vs. response, variable slope, 4-parameter fit equation using GraphPad Prism. Data is shown as % relative cell viability vs. molar compound concentration, error bars indicating standard deviation (SD) of triplicates. Geometric mean values of IC50s derived from multiple experiments were calculated.

MDA-MB-231 = assay: Viability assay (Cell Titer-Glo); assay type: cell-based; details: Homo sapiens, MDA-MB-231, 144 h; Table 2; six days; geometric mean; N ≥ 3; CEACAM5 Negative
Description: as §1, §2

MKN45 cells = assay: Internalization assay using Cell Discoverer (pHrodo labeled antibodies); assay type: cell-based, human
Excerpt: A relevant characteristic of an ADC is its internalization into a target-expressing cell and lysosomes, and thus internalization is a relevant property of antibodies to be used as part of ADCs. Antibody internalization rate into the late endosome and lysosome (low pH vesicles) can be monitored by directly labeling the antibodies with a pH-sensitive dye (pHrodo) which emits strong fluorescence at a pH lower than 6.0 upon excitation. This fluorescence can be imaged in the Cell-Discoverer7 (Zeiss) and internalization rate can be calculated.
To analyze the internalization rates of several antibodies, MKN45 cells were seeded in a 96 well, dark, flat clear bottom plate (Cellvis) at 25,000 cells/well. Cells were cultivated over night with 100 μl/well of RMPI-1640+10% FBS (Thermo). Cell media was removed, and cells were stained with 100 μl of 10 μg/ml Hoechst dye diluted in PBS×1 for 15 min at room temperature (RT) in the dark. Cells were then washed twice with PBS×1. […]
Internalization of pHrodo labeled antibodies into the late endosomes and lysosomes of cells was imaged by Cell-Discoverer7 (Zeiss) using fluorescence at excitation of 567 nm and emission detector of 592/25 nm. […]
Fluorescence of each well was recorded every 20 min for 20 h. Analysis of Sum Fluorescence Intensity per cell (SFI) was calculated by the Zen Software (ZEN3.1) and Excel analysis of linear regression.

[1] = system: CEACAM5 from Macaca fascicularis; details: background; cited from earlier work
[2] = background; cited from earlier work

CEACAM5 from Macaca fascicularis, sequence (as listed by the source): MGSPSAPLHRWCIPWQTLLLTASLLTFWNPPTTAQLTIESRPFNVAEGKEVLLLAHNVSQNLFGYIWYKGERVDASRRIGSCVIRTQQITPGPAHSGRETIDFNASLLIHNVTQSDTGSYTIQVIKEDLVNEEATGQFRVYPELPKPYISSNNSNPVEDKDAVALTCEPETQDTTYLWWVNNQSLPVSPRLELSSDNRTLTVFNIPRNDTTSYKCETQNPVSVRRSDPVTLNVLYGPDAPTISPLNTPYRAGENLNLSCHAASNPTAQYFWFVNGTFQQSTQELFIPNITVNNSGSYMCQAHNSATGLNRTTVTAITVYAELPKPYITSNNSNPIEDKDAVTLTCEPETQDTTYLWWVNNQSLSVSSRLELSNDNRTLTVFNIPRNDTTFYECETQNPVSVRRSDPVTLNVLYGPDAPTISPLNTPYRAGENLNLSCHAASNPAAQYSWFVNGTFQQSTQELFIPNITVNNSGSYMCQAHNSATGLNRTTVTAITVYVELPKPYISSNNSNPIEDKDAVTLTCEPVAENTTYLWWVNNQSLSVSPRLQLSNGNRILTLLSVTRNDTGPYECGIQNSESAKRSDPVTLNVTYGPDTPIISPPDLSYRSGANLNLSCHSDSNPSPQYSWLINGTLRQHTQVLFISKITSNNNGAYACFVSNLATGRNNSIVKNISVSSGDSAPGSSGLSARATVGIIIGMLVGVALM

Compound: CC[C@@]1(O)C(=O)OCc2c1cc1n(c2=O)Cc2c-1nc1cc(F)c(C)c3c1c2[C@@H](N)CC3 [PAYLOAD, (1S,9S)-1-Amino-9-ethyl-5-fluoro-1,2,3,9,12,15-hexahydro-9-hydroxy-4-methyl-10H,13H-benzo(de)pyrano(3′,4′:6,7)indolizino(1,2-b)quinoline-10,13-dione, reference compound]
- IC50 (MKN-45; MKN-45, 144 h, Table 2, six days, geometric mean, N ≥ 3, CEACAM5 Positive): 890 pM
- Emax (MKN-45; MKN-45, Table 2, at the highest tested compound concentration, read-out: MKN-45 maximal effect compared to untreated controls): -96%
- IC50 (SNU-16; Homo sapiens, SNU-16, 144 h, Table 2, six days, geometric mean, N ≥ 3, CEACAM5 Positive): 440 pM
- SNU-16 maximal effect compared to untreated controls (SNU-16; Table 3, at the highest tested compound concentration): (−99%)
- IC50 (SK-CO-1; SK-CO-1, 144 h, Table 2, six days, geometric mean, N ≥ 4, CEACAM5 Positive): 250 pM
- Emax (SK-CO-1; SK-CO-1, Table 2, at the highest tested compound concentration, read-out: SK-CO-1 maximal effect compared to untreated controls): -99%
- IC50 (LS174T; 144 h, Table 2, six days, geometric mean, N ≥ 3, CEACAM5 Positive): 530 pM
- Emax (LS174T; Table 2, at the highest tested compound concentration, read-out: LS174T maximal effect compared to untreated controls): -88%
- IC50 (MDA-MB-468; MDA-MB-468, 144 h, six days, geometric mean, N ≥ 2, CEACAM5 Negative): 210 pM
- Emax (MDA-MB-468; MDA-MB-468, at the highest tested compound concentration, read-out: MDA-MB-468 maximal effect compared to untreated controls): -99%
- IC50 (MDA-MB-231): 930 pM

Compound: hmn-14: known anti-CEACAM5 antibody as in labetuzumab govitecan; HC SEQ ID NO: 27, LC SEQ ID NO: 28 [reference compound]
- average binding rate (MKN45 cells; average of the three slopes of the linear part of the curve): 22268±3060
- Slope of Curve (MKN45 cells; linear part (700 to 1200 minutes) of fluorescence intensity per cell, 100 nM pHrodo labeled antibody, single wells): 23701 and 24350 and 18754
- cross-reactivity with CEACAM5 from Macaca fascicularis [1]: not cross-reacting with CEACAM5 from Macaca fascicularis

Compound: Labetuzumab govitecan
- stability of the linker structure after parenteral application [2]: significant instability of the linker structure
